Results taken from patent US8921410B2, “Nicotinic acetylcholine receptor sub-type selective amides of diazabicycloalkanes” (Targacept, Inc., priority 2006, dated 2014).
Read-outs that look alike come from different tables or passages of the source.

Columns and labels:
[1] = biological target: rat α4β2 nAChR subtype (Rattus norvegicus (Rat), UniProt P09483+P12390); assay: Radioligand ([3H]nicotine) binding at α4β2 nAChR, rat cortex membranes; settings: [3H]nicotine 5 nM, rat cortex membranes
Protocol: Preparation of Membranes from Rat Cortex:
(§1) Rats (female, Sprague-Dawley), weighing 150-250 g, were maintained on a 12 h light/dark cycle and were allowed free access to water and food supplied by PMI Nutrition International, Inc. Animals were anesthetized with 70% CO2, and then decapitated. Brains were removed and placed on an ice-cold platform. […] The homogenate was centrifuged at 18,000×g for 20 min at 4° C. and the resulting pellet was re-suspended in 20 volumes of ice-cold water. After 60 min incubation on ice, a new pellet was collected by centrifugation at 18,000×g for 20 min at 4° C. The final pellet was re-suspended in 10 volumes of buffer and stored at −20° C.
(§2) On the day of the assay, the frozen membranes were thawed and spun at 48,000×g for 20 min. The supernatant was decanted and discarded. The pellet was resuspended in Dulbecco's phosphate buffered saline (PBS, Life Technologies) pH 7.4 and homogenized with the Polytron for 6 seconds. Protein concentrations were determined using a Pierce BCA Protein Assay Kit, with bovine serum albumin as the standard (Pierce Chemical Company, Rockford, Ill.).
(§3) Tissue was rinsed 3 times in PBS, pH 7.4. Scintillation fluid was added to filters containing the washed tissue and allowed to equilibrate.
(§4) Data were expressed as disintegrations per minute (DPMs). Within each assay, each point had 2-3 replicates. The replicates for each point were averaged and plotted against the log of the drug concentration.

[2] = biological target: human α4β2 nAChR subtype (Homo sapiens (Human), UniProt P17787+P43681); assay: Radioligand ([3H]nicotine) binding at α4β2 nAChR, SH-EP1/human α4β2 clonal cell membranes
Sequence of human α4β2 nAChR subtype (P43681 29-627): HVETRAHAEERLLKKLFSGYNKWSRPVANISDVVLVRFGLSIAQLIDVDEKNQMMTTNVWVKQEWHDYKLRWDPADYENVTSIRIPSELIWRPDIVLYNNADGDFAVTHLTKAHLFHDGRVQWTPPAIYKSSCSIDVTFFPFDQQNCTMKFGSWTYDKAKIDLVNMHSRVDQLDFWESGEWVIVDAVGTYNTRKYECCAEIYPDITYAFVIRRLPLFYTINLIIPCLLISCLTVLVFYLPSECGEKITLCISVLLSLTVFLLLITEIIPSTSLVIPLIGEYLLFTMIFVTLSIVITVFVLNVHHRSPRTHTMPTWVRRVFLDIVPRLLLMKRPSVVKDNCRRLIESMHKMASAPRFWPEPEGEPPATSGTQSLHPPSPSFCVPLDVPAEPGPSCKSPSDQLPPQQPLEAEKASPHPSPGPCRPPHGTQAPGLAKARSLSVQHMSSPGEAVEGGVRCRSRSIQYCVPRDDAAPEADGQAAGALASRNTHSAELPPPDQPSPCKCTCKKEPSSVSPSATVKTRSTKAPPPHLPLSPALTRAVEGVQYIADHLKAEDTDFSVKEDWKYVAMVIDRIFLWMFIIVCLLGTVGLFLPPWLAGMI
Sequence of human α4β2 nAChR subtype (P17787 26-502): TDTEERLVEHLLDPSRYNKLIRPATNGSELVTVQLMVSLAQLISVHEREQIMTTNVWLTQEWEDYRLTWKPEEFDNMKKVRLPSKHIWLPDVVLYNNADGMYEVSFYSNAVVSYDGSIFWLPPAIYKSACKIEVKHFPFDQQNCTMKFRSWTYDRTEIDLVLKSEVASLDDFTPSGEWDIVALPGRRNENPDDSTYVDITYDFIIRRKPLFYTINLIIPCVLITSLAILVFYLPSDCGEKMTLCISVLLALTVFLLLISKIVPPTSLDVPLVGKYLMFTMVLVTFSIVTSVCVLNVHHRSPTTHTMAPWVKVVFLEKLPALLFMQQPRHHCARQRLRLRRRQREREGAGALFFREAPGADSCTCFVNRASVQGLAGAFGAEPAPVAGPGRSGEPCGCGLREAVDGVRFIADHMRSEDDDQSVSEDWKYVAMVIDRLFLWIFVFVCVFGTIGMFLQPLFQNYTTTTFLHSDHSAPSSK
Protocol: Preparation of Membranes from SH-EP1/Human α4β2 Clonal Cells:
Cell pellets from 40 150 mm culture dishes were pooled, and homogenized by Polytron (Kinematica GmbH, Switzerland) in 20 milliliters of ice-cold preparative buffer. The homogenate was centrifuged at 48,000 g for 20 minutes at 4° C. The resulting pellet was re-suspended in 20 mL of ice-cold preparative buffer and stored at −20° C.
as §2, §3, §4

[3] = biological target: α7 nAChR subtype (Rattus norvegicus (Rat), UniProt Q05941); assay: Radioligand ([3H]MLA) binding at α7 nAChR, rat hippocampus membranes
Sequence of α7 nAChR subtype (Q05941 23-502): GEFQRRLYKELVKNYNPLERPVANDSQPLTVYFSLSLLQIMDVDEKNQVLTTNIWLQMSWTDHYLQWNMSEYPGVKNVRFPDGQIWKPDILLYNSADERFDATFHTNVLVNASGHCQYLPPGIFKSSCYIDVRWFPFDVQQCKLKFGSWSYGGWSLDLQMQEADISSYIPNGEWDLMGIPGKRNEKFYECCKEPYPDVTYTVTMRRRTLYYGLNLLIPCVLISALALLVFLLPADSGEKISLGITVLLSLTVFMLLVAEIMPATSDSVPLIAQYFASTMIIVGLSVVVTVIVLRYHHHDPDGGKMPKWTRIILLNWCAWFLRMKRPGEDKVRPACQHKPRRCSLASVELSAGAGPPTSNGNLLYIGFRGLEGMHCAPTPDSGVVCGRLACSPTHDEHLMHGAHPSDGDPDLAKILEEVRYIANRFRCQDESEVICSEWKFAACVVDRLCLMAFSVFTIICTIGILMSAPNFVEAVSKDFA
Protocol: as §1, with “CO2,” for “CO2, and”, “in 10” for “in 20”
The binding of [^3H]MLA was measured using a modification of the methods of Davies et al., Neuropharmacol. […] [^3H]MLA (Specific Activity=25-35 Ci/mmol) was obtained from Tocris. The binding of [^3H]MLA was determined using a 2 h incubation at 21° C. Incubations were conducted in 48-well micro-titre plates and contained about 200 μg of protein per well in a final incubation volume of 300 μL. The incubation buffer was PBS and the final concentration of [^3H]MLA was 5 nM. The binding reaction was terminated by filtration of the protein containing bound ligand onto glass fiber filters (GF/B, Brandel) using a Brandel Tissue Harvester at room temperature. […] Each filter was washed with PBS (3×1 mL) at room temperature. Non-specific binding was determined by inclusion of 50 μM non-radioactive MLA in selected wells.
The inhibition of [^3H]MLA binding by test compounds was determined by including seven different concentrations of the test compound in selected wells. Each concentration was replicated in triplicate. IC50 values were estimated as the concentration of compound that inhibited 50 percent of specific [^3H]MLA binding.

[4] = tested on: object recognition in rats; assay: Novel object recognition (NOR) task; assay type: in vivo, rat; settings: oral
Protocol: The novel object recognition (NOR) task was performed in accord with the description of Ennaceur and Delacour Behav. Brain Res. 100: 85-92 (1988).

[5] = [3H]nicotine 5 nM, SH-EP1/human α4β2 membranes, read-out: Human α4β2 Ki
[6] = [3H]MLA 5 nM, rat hippocampus membranes
[7] = did not bind sufficiently in HTS at α7 to warrant Ki determination

Sequence of rat α4β2 nAChR subtype (P09483 31-630): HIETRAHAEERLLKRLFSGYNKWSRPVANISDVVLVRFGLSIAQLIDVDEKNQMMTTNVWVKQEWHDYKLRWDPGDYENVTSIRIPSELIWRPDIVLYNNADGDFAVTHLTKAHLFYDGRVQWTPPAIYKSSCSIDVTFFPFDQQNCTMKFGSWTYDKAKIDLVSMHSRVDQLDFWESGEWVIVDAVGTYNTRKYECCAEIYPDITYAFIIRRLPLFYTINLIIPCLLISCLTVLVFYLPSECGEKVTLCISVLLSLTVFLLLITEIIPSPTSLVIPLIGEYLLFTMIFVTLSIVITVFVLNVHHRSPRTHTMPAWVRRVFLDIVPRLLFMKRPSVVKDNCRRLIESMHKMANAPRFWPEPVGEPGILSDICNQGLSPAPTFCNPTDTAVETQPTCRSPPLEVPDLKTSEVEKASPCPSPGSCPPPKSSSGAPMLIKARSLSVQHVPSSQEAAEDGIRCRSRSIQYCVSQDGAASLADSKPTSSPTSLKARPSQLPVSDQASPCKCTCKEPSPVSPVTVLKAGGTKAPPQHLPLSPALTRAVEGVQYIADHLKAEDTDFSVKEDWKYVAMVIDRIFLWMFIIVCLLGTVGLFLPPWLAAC
Sequence of rat α4β2 nAChR subtype (P12390 25-500): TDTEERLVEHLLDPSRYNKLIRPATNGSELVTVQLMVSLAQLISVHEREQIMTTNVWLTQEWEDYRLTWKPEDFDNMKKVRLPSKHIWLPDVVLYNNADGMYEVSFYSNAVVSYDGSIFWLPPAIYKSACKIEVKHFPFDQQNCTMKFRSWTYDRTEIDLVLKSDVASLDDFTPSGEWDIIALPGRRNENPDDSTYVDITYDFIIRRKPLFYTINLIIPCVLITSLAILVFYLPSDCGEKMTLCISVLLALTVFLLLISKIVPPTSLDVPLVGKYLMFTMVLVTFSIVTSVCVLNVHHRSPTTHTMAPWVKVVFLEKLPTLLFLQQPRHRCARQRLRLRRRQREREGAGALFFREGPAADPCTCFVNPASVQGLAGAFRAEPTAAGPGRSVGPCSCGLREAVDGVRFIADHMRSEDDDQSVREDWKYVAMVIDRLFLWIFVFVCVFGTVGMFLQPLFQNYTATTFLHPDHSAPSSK

## O=C(c1ccncc1)N1CC2CNCC(C2)C1
[1]
  Ki: 110 nM
[2]; [5]
  Ki: 18 nM
[3]; [6]
  Ki: 1700 nM

## Cc1ncoc1C(=O)N1CC2CNCC(C2)C1
[1]
  Ki: 20 nM
[2]; [5]
  Ki: 64 nM
[3]; [7]
  α7 high through-put screening outcome (Ki not determined): ND; failed HTS

## Cc1nocc1C(=O)N1CC2CNCC(C2)C1
[1]
  Ki: 9.5 nM
[2]; [5]
  Ki: 21 nM
[3]; [7]
  α7 high through-put screening outcome (Ki not determined): ND; failed HTS

## O=C(c1ccc(F)o1)N1CC2CNCC(C2)C1
[1]
  Ki: 6.4 nM
[2]; read-out: Human α4β2 Ki
  Ki: 4.6 nM
[3]; [7]
  α7 high through-put screening outcome (Ki not determined): ND; failed HTS

## O=C(c1cc(-c2cc(F)cc(F)c2)co1)N1CC2CNCC(C2)C1
[1]
  Ki: 6.3 nM
[2]; [5]
  Ki: 23 nM
[3]; [7]
  α7 high through-put screening outcome (Ki not determined): ND; failed HTS

## O=C(c1cc(-c2ccoc2)co1)N1CC2CNCC(C2)C1
[1]
  Ki: 12 nM
[2]; [5]
  Ki: 35 nM
[3]; [7]
  α7 high through-put screening outcome (Ki not determined): ND; failed HTS

## O=C(c1occc1F)N1CC2CNCC(C2)C1
[1]
  Ki: 110 nM
[2]; [5]
  Ki: 57 nM
[3]; [7]
  α7 high through-put screening outcome (Ki not determined): ND; failed HTS

## N#Cc1ccoc1C(=O)N1CC2CNCC(C2)C1
[1]
  Ki: 110 nM
[2]; [5]
  Ki: 31 nM
[3]; [7]
  α7 high through-put screening outcome (Ki not determined): ND; failed HTS

## COc1ccoc1C(=O)N1CC2CNCC(C2)C1
[1]
  Ki: 560 nM
[2]; read-out: Human α4β2 Ki
  Ki: 28 nM
[3]; [7]
  α7 high through-put screening outcome (Ki not determined): ND; failed HTS

## O=C(c1cnco1)N1CC2CNCC(C2)C1
[1]
  Ki: 28 nM
[2]; [5]
  Ki: 26 nM
[3]; [7]
  α7 high through-put screening outcome (Ki not determined): ND; failed HTS

## O=C(c1cc(F)co1)N1CC2CNCC(C2)C1
[1]
  Ki: 28 nM
[2]; [5]
  Ki: 14 nM
[3]; [7]
  α7 high through-put screening outcome (Ki not determined): ND; failed HTS

## C#Cc1ccc(C(=O)N2CC3CNCC(C3)C2)o1
[1]
  Ki: 220 nM
[2]; [5]
  Ki: 47 nM
[3]; [7]
  α7 high through-put screening outcome (Ki not determined): ND; failed HTS

## Cc1cc(F)c(C(=O)N2CC3CNCC(C3)C2)o1
[1]
  Ki: 500 nM
[2]; [5]
  Ki: 62 nM
[3]; [7]
  α7 high through-put screening outcome (Ki not determined): ND; failed HTS

## O=C(c1ncco1)N1CC2CNCC(C2)C1
[1]
  Ki: 370 nM
[2]; [5]
  Ki: 85 nM
[3]; [7]
  α7 high through-put screening outcome (Ki not determined): ND; failed HTS

## N#Cc1coc(C(=O)N2CC3CNCC(C3)C2)c1
[1]
  Ki: 27 nM
[2]
  Ki: 23 nM
[3]; [7]
  α7 high through-put screening outcome (Ki not determined): ND; failed HTS

## O=C(c1cc(Br)co1)N1CC2CNCC(C2)C1
[1]
  Ki: 12 nM
[2]; read-out: Human α4β2 Ki
  Ki: 1.7 nM
[3]
  α7 high through-put screening outcome (Ki not determined): ND; failed HTS

## Cc1oncc1C(=O)N1CC2CNCC(C2)C1
[1]
  Ki: 65 nM
[2]; read-out: Human α4β2 Ki
  Ki: 31 nM
[3]; [7]
  α7 high through-put screening outcome (Ki not determined): ND; failed HTS

## O=C(c1ccno1)N1CC2CNCC(C2)C1
[1]
  Ki: 52 nM
[2]; [5]
  Ki: 30 nM
[3]; [7]
  α7 high through-put screening outcome (Ki not determined): ND; failed HTS

## O=C(c1ccc(Cl)o1)N1CC2CNCC2C1 (centres unmarked) [N-(5-chlorofuran-2-ylcarbonyl)-3,7-diazabicyclo[3.3.0]octane]
[1]
  Ki: 33 nM
[2]; [5]
  Ki: 28 nM
[4]; 0.1 mg/kg (FIG. 1)
  activity in object recognition (OR): active
[3]; [6]
  Ki: 91000 nM

## O=C(c1ccc(Cl)o1)N1CC2CNCC(C2)C1 [N-(5-chlorofuran-2-ylcarbonyl)-3,7-diazabicyclo[3.3.1]nonane]
[1]
  Ki: 15 nM
[2]; [5]
  Ki: 7.3 nM
[4]; 0.3 mg/kg (FIG. 2)
  activity in object recognition (OR): active
[3]; [6]
  Ki: 120000 nM

## O=C(c1ccco1)N1CC2CNCC2C1 (centres unmarked) [N-(furan-2-ylcarbonyl)-3,7-diazabicyclo[3.3.0]octane]
[1]
  Ki: 20 nM
[2]; [5]
  Ki: 33 nM
[3]; [6]
  Ki: 13000 nM

## O=C(c1ccco1)N1CC2CNCC(C2)C1 [N-(furan-2-ylcarbonyl)-3,7-diazabicyclo[3.3.1]nonane]
[1]
  Ki: 31 nM
[2]; [5]
  Ki: 9.9 nM
[3]
  Ki: 15000 nM
